# According to patent publication US9296757B2, “Substituted benzothienopyrimidines” (BAYER PHARMA AKTIENGESELLSCHAFT, priority 2012, dated 2016):
# Target: human full-length MKNK1 (Homo sapiens (Human), UniProt Q9BUB5, T344D)
# Assay: MKNK1 kinase high ATP assay (TR-FRET)
# Type: biochemical
# Conditions: high ATP (2 mM final), 15 min preincubation with enzyme
# Summary of the method: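 GST-tagged full-length MKNK1 (T344D), insect-cell expressed, preincubated 15 min at 22 °C with compound, then reacted 30 min at 22 °C with 2 mM ATP and 0.06 μM biotinylated peptide in HEPES pH 7.5 buffer (final concentrations). Phospho-peptide detected by TR-FRET (665/620 nm ratio), normalised to no-inhibitor and no-enzyme controls.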
# human full-length MKNK1, sequence (Q9BUB5 other isoform, or with tags, fused parts or gaps T344D): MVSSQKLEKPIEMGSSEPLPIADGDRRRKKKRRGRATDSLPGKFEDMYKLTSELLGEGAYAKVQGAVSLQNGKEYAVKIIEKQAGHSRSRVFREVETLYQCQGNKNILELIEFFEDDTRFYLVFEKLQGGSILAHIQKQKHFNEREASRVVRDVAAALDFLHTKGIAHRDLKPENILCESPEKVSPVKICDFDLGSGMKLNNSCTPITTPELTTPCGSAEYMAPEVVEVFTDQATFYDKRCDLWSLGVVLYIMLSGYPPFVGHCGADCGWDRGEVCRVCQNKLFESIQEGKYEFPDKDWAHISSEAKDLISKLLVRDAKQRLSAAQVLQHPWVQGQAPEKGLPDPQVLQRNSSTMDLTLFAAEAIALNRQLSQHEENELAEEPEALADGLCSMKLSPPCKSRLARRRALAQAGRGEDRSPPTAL
row,IC50 [nM],Compound
1,36,"CC(C)NC(=O)C1CCc2c(sc3ncnc(Nc4ccc5[nH]c(=O)sc5c4)c23)C1 (racemic) [Example 5, (RS)—N-Isopropyl-4-[(2-oxo-2,3-dihydro-1,3-benzothiazol-6-yl)amino]-5,6,7,8-tetrahydro[1]benzothieno[2,3-d]pyrimidine-7-carboxamide]"
2,37,"CC(C)C(=O)NCC1CCc2c(sc3ncnc(Nc4ccc5[nH]c(=O)sc5c4)c23)C1 (racemic) [Example 21, (RS)-2-Methyl-N-({4-[(2-oxo-2,3-dihydro-1,3-benzothiazol-6-yl)amino]-5,6,7,8-tetrahydro[1]benzothieno[2,3-d]pyrimidin-7-yl}methyl)propanamide]"
3,57,"O=C(NC1CC1)C1CCc2c(sc3ncnc(Nc4ccc5[nH]c(=O)sc5c4)c23)C1 (racemic) [Example 4, (RS)—N-Cyclopropyl-4-[(2-oxo-2,3-dihydro-1,3-benzothiazol-6-yl)amino]-5,6,7,8-tetrahydro[1]benzothieno[2,3-d]pyrimidine-7-carboxamide]"
4,34,"CN(CCCCO)C(=O)C1CCc2c(sc3ncnc(Nc4ccc5[nH]c(=O)sc5c4)c23)C1 (racemic) [Example 66, (RS)-N-(4-hydroxybutyl)-N-methyl-4-[(2-oxo-2,3-dihydro-1,3-benzothiazol-6-yl)amino]-5,6,7,8-tetrahydro[1]benzothieno[2,3-d]pyrimidine-7-carboxamide]"
5,84,"CC(O)C(=O)NCC1CCc2c(sc3ncnc(Nc4ccc5[nH]c(=O)sc5c4)c23)C1 (racemic) [Example 26, (2RS)-2-Hydroxy-N-({(7RS)-4-[(2-oxo-2,3-dihydro-1,3-benzothiazol-6-yl)amino]-5,6,7,8-tetrahydro[1]benzothieno[2,3-d]pyrimidin-7-yl}methyl)propanamide]"
6,42,"CC(C)(O)C(=O)NCC1CCc2c(sc3ncnc(Nc4ccc5[nH]c(=O)sc5c4)c23)C1 (racemic) [Example 25, (RS)-2-Hydroxy-2-methyl-N-({4-[(2-oxo-2,3-dihydro-1,3-benzothiazol-6-yl)amino]-5,6,7,8-tetrahydro[1]benzothieno[2,3-d]pyrimidin-7-yl}methyl)propanamide]"
7,2,"CCCN(CCOC)C(=O)C1CCc2c(sc3ncnc(Nc4cc5sc(=O)[nH]c5cc4OC)c23)C1 (racemic) [Example 87, (RS)—N-(2-Methoxyethyl)-4-[(5-methoxy-2-oxo-2,3-dihydro-1,3-benzothiazol-6-yl)amino]-N-propyl-5,6,7,8-tetrahydro[1]benzothieno[2,3-d]pyrimidine-7-carboxamide]"
8,47,"CN1CC2CC1CN2C(=O)C1CCc2c(sc3ncnc(Nc4ccc5[nH]c(=O)sc5c4)c23)C1 (racemic) [Example 74, 6-{[(7RS)-7-{[(1RS,4RS)-5-methyl-2,5-diazabicyclo[2.2.1]hept-2-yl]carbonyl}-5,6,7,8-tetrahydro[1]benzothieno[2,3-d]pyrimidin-4-yl]amino}-1,3-benzothiazol-2(3H)-one]"
9,59,"CC(C)NC(=O)NCC1CCc2c(sc3ncnc(Nc4ccc5[nH]c(=O)sc5c4)c23)C1 (racemic) [Example 22, (RS)-1-({4-[(2-Oxo-2,3-dihydro-1,3-benzothiazol-6-yl)amino]-5,6,7,8-tetrahydro[1]benzothieno[2,3-d]pyrimidin-7-yl}methyl)-3-propan-2-ylurea]"
10,38,"CCN(CCC#N)C(=O)C1CCc2c(sc3ncnc(Nc4ccc5[nH]c(=O)sc5c4)c23)C1 (racemic) [Example 63, (RS)-N-(2-cyanoethyl)-N-ethyl-4-[(2-oxo-2,3-dihydro-1,3-benzothiazol-6-yl)amino]-5,6,7,8-tetrahydro[1]benzothieno[2,3-d]pyrimidine-7-carboxamide]"
11,47,"O=C(C1CCc2c(sc3ncnc(Nc4ccc5[nH]c(=O)sc5c4)c23)C1)N1CCC(CO)CC1 (racemic) [Example 71, (RS)-6-[(7-{[4-(hydroxymethyl)piperidin-1-yl]carbonyl}-5,6,7,8-tetrahydro[1]benzothieno[2,3-d]pyrimidin-4-yl)amino]-1,3-benzothiazol-2(3H)-one]"
12,62,"CN(CCCO)C(=O)C1CCc2c(sc3ncnc(Nc4ccc5[nH]c(=O)sc5c4)c23)C1 (racemic) [Example 67, (RS)-N-(3-hydroxypropyl)-N-methyl-4-[(2-oxo-2,3-dihydro-1,3-benzothiazol-6-yl)amino]-5,6,7,8-tetrahydro[1]benzothieno[2,3-d]pyrimidine-7-carboxamide]"
13,40,"CN(C)C(=O)CN(C)C(=O)C1CCc2c(sc3ncnc(Nc4ccc5[nH]c(=O)sc5c4)c23)C1 (racemic) [Example 62, (RS)-N-[2-(dimethylamino)-2-oxoethyl]-N-methyl-4-[(2-oxo-2,3-dihydro-1,3-benzothiazol-6-yl)amino]-5,6,7,8-tetrahydro[1]benzothieno[2,3-d]pyrimidine-7-carboxamide]"
14,41,"CN(C)C(=O)C1CCc2c(sc3ncnc(Nc4ccc5[nH]c(=O)sc5c4)c23)C1 (racemic) [Example 13, (RS)—N,N-Dimethyl-4-[(2-oxo-2,3-dihydro-1,3-benzothiazol-6-yl)amino]-5,6,7,8-tetrahydro[1]benzothieno[2,3-d]pyrimidine-7-carboxamide]"
15,24,"CCN(CCOC)C(=O)C1CCc2c(sc3ncnc(Nc4ccc5[nH]c(=O)sc5c4)c23)C1 (racemic) [Example 70, (RS)-N-ethyl-N-(2-methoxyethyl)-4-[(2-oxo-2,3-dihydro-1,3-benzothiazol-6-yl)amino]-5,6,7,8-tetrahydro[1]benzothieno[2,3-d]pyrimidine-7-carboxamide]"
16,70,"O=C(C1CCc2c(sc3ncnc(Nc4ccc5[nH]c(=O)sc5c4)c23)C1)N1CCC1 (racemic) [Example 45, (RS)-6-{[7-(azetidin-1-ylcarbonyl)-5,6,7,8-tetrahydro[1]benzothieno[2,3-d]pyrimidin-4-yl]amino}-1,3-benzothiazol-2(3H)-one]"
17,27,"O=C(C1CCc2c(sc3ncnc(Nc4ccc5[nH]c(=O)sc5c4)c23)C1)N1CCN2CCCCC2C1 (racemic) [Example 64, 6-({(7RS)-7-[(9aRS)-octahydro-2H-pyrido[1,2-a]pyrazin-2-ylcarbonyl]-5,6,7,8-tetrahydro[1]benzothieno[2,3-d]pyrimidin-4-yl}amino)-1,3-benzothiazol-2(3H)-one]"
18,69,"O=C(CN1CCN(C(=O)C2CCc3c(sc4ncnc(Nc5ccc6[nH]c(=O)sc6c5)c34)C2)CC1)N1CCCC1 (racemic) [Example 43, (RS)-6-{[7-({4-[2-oxo-2-(pyrrolidin-1-yl)ethyl]piperazin-1-yl}carbonyl)-5,6,7,8-tetrahydro[1]benzothieno[2,3-d]pyrimidin-4-yl]amino}-1,3-benzothiazol-2(3H)-one]"
19,1,"CCCCN(CC#N)C(=O)C1CCc2c(sc3ncnc(Nc4cc5sc(=O)[nH]c5cc4OC)c23)C1 (racemic) [Example 88, (RS)—N-Butyl-N-(cyanomethyl)-4-[(5-methoxy-2-oxo-2,3-dihydro-1,3-benzothiazol-6-yl)amino]-5,6,7,8-tetrahydro[1]benzothieno[2,3-d]pyrimidine-7-carboxamide]"
20,63,"CC(C)CN(C)C(=O)C1CCc2c(sc3ncnc(Nc4ccc5[nH]c(=O)sc5c4)c23)C1 (racemic) [Example 58, (RS)-N-isobutyl-N-methyl-4-[(2-oxo-2,3-dihydro-1,3-benzothiazol-6-yl)amino]-5,6,7,8-tetrahydro[1]benzothieno[2,3-d]pyrimidine-7-carboxamide]"
21,34,"O=C(C1CCc2c(sc3ncnc(Nc4ccc5[nH]c(=O)sc5c4)c23)C1)N1CCN(CC2CC2)CC1 (racemic) [Example 78, (RS)-6-[(7-{[4-(cyclopropylmethyl)piperazin-1-yl]carbonyl}-5,6,7,8-tetrahydro[1]benzothieno[2,3-d]pyrimidin-4-yl)amino]-1,3-benzothiazol-2(3H)-one]"
22,36,"CN(C)CCN(C)C(=O)C1CCc2c(sc3ncnc(Nc4ccc5[nH]c(=O)sc5c4)c23)C1 (racemic) [Example 35, (RS)-N-[2-(dimethylamino)ethyl]-N-methyl-4-[(2-oxo-2,3-dihydro-1,3-benzothiazol-6-yl)amino]-5,6,7,8-tetrahydro[1]benzothieno[2,3-d]pyrimidine-7-carboxamide]"
23,32,"CC1CN(C(=O)C2CCc3c(sc4ncnc(Nc5ccc6[nH]c(=O)sc6c5)c34)C2)CC(C)O1 (racemic) [Example 68, 6-{[(7RS)-7-{[(2RS,6RS)-2,6-dimethylmorpholin-4-yl]carbonyl}-5,6,7,8-tetrahydro[1]benzothieno[2,3-d]pyrimidin-4-yl]amino}-1,3-benzothiazol-2(3H)-one]"
24,44,"O=C(C1CCc2c(sc3ncnc(Nc4ccc5[nH]c(=O)sc5c4)c23)C1)N1CCN(Cc2ccccc2)CC1 (stereo not drawn) [Example 38, 6-({7-[(4-benzylpiperazin-1-yl)carbonyl]-5,6,7,8-tetrahydro[1]benzothieno[2,3-d]pyrimidin-4-yl}amino)-1,3-benzothiazol-2(3H)-one]"
25,85,"O=C(NCC(F)(F)F)C1CCc2c(sc3ncnc(Nc4ccc5[nH]c(=O)sc5c4)c23)C1 (racemic) [Example 15, (RS)-4-[(2-oxo-2,3-dihydro-1,3-benzothiazol-6-yl)amino]-N-(2,2,2-trifluoroethyl)-5,6,7,8-tetrahydro[1]benzothieno[2,3-d]pyrimidine-7-carboxamide]"
26,93,"[N-]=[N+]=NCC1CCc2c(sc3ncnc(Nc4ccc5[nH]c(=O)sc5c4)c23)C1 (racemic) [Example 19, (RS)-6-{[7-(Azidomethyl)-5,6,7,8-tetrahydro[1]benzothieno[2,3-d]pyrimidin-4-yl]amino}-1,3-benzothiazol-2(3H)-one]"
27,65,"CN(CCC#N)C(=O)C1CCc2c(sc3ncnc(Nc4ccc5[nH]c(=O)sc5c4)c23)C1 (racemic) [Example 48, (RS)-N-(2-cyanoethyl)-N-methyl-4-[(2-oxo-2,3-dihydro-1,3-benzothiazol-6-yl)amino]-5,6,7,8-tetrahydro[1]benzothieno[2,3-d]pyrimidine-7-carboxamide]"
